Reference: patent EP4786459A1, “BENZENE RING-CONTAINING COMPOUND HAVING ANALGESIC EFFECT, PREPARATION METHOD THEREFOR, AND USE THEREOF” (West China Hospital, Sichuan University, priority 2023, dated 2025)

Key:
rats = assay: Loss of tail withdrawal reflex (LOTWR) in rats, single intravenous injection, dose escalation: potent analgesic effect and severe adverse reactions; format: in vivo, SD rats; details: Rattus norvegicus, single intravenous injection (tail vein), LOTWR lasting for 30 seconds as criterion, class symbol, read-out: The minimum effective dose
Experimental: (§1) Using the loss of tail withdrawal reflex (LOTWR) in rats as an indicator, the potent analgesic effect of the compounds according to the present invention was evaluated.
(§2) 1.1 Experimental animals: Adult male SD rats weighing between 220-300 g were selected for the experiment. The rats were housed in sawdust-bedded cages with a temperature of 25±1°C, humidity ranging from 40% to 60%, and a 12-hour light/12-hour dark cycle. Each cage contained no more than 5 rats, with free access to water and food.
(§3) • (1) The compound of the present invention, along with the positive control drug remifentanil and the negative control (vehicle), were administered in fixed volumes. A dose escalation approach was employed to determine the minimum effective dose at which the compound of the present invention produces potent analgesic effects, as well as the minimum dose at which severe adverse reactions first appear. • (2) LOTWR lasting for 30 seconds was used as the criterion for generating potent analgesic effects. During the experiment, drugs were administered via the tail vein of rats, with a dosage volume of 0.6 mL per rat and a dosage rate of 0.02 mL/s. Subsequently, an alligator clip was applied at a distance of 1 cm from the base of the rat's tail, clamping once longitudinally and once transversely before being left in place. Meanwhile, the distal end of the alligator clip was continuously oscillated (30 times/min) to continuously generate stimulation. […] When all results were "no LOTWR" after 10 minutes of testing (5 trials), the test was stopped and recorded as "ineffective." • (3) All compounds would undergo a dose escalation for efficacy evaluation, starting from 1 mg/kg (due to the high potency of remifentanil, the lowest dose was set at 1 µg/kg), followed by 5 mg/kg, 10 mg/kg, 20 mg/kg, and so on (increasing by 20 mg/kg increments after 20 mg/kg). The dose escalation would be stopped when rats show signs of death, and the lowest effective dose and the lowest dose at which severe adverse reactions occur would be recorded throughout the process. In this study, severe adverse reactions are defined as apnea, generalized tonic rigidity, convulsions, opisthotonus, seizures, etc.
(§4) 1.3 Evaluation indicators: the minimum effective dose; the minimum dose resulting in serious adverse reactions; the safety therapeutic index = "the minimum dose resulting in serious adverse reactions" / "the minimum effective dose".

[1] = as above; format: in vivo, SD rats; details: rat, in vivo, single intravenous injection, minimum dose resulting in serious adverse reactions / minimum effective dose, class symbol, read-out: The safety therapeutic index
Experimental: as §1, §2, §3, §4

| SMILES | minimal effective dose (rats) | selectivity ratio [1] |
| --- | --- | --- |
| Cc1ccc(CNC(=O)NCc2ccsc2)c(N(C)C)c1 [Example 1] | ≤ 10 mg/kg | 2 to 4 |
| Cc1ccc(CNC(=S)NCc2ccsc2)c(N(C)C)c1 [Example 2, 1-(2-(dimethylamino)-4-methylbenzyl)-3-(thiophene-3-ylmethyl)thiourea] | ≤ 10 mg/kg | ≤ 2 |
| Cc1ccc(CNC(=N)NCc2ccsc2)c(N(C)C)c1 [Example 3, 1-(2-(dimethylamino)-4-methylbenzyl)-3-(thiophen-3-ylmethyl)guanidine] | ≤ 10 mg/kg | 2 to 4 |
| Cc1ccc(CNC(=NC#N)NCc2ccsc2)c(N(C)C)c1 [Example 4] | > 30 mg/kg | ≤ 2 |
| Cc1ccc(CNC(=O)OCc2ccsc2)c(N(C)C)c1 [Example 5] | ≤ 10 mg/kg | 2 to 4 |
| Cc1ccc(COC(=O)NCc2ccsc2)c(N(C)C)c1 [Example 6, 2-(dimethylamino)-4-methylbenzyl(thiophene-3-ylmethyl)carbamate] | ≤ 10 mg/kg | 2 to 4 |
| Cc1ccc(CNC(=C[N+](=O)[O-])NCc2ccsc2)c(N(C)C)c1 [Example 7] | > 30 mg/kg | ≤ 2 |
| Cc1ccc(CNc2c(NCc3ccsc3)c(=O)c2=O)c(N(C)C)c1 [Example 8] | > 30 mg/kg | ≤ 2 |
| Cc1ccc(CNC(=O)NCc2ccoc2)c(N(C)C)c1 [Example 9] | 20 to 30 mg/kg | ≤ 2 |
| Cc1ccc(CNC(=O)NCc2cccs2)c(N(C)C)c1 [Example 10] | ≤ 10 mg/kg | > 4 |
| Cc1ccc(CCNC(=O)NCc2ccsc2)c(N(C)C)c1 [Example 11, 1-(2-(dimethylamino)-4-methylphenethyl)-3-(thiophene-3-ylmethyl)urea] | ≤ 10 mg/kg | 2 to 4 |
| Cc1ccc(CNC(=O)NCCc2ccsc2)c(N(C)C)c1 [Example 12, 1-(2-(dimethylamino)-4-methylbenzyl)-3-(2-(thiophene-3-yl)ethyl)urea] | ≤ 10 mg/kg | ≤ 2 |
| Cc1ccc(NC(=O)Nc2ccsc2)c(N(C)C)c1 [Example 13] | ≤ 10 mg/kg | > 4 |
| Cc1ccc(NC(=N)Nc2ccsc2)c(N(C)C)c1 [Example 14] | ≤ 10 mg/kg | ≤ 2 |
| CN(C)c1cc(O)ccc1CNC(=O)NCc1ccsc1 [Example 15] | 10 to 20 mg/kg | > 4 |
| [2H]C([2H])([2H])N(c1cc(C)ccc1CNC(=O)NCc1ccsc1)C([2H])([2H])[2H] [Example 17] | ≤ 10 mg/kg | 2 to 4 |
| Cc1ccc(CNC(=O)NCc2ccsc2)cc1N(C)C [Example 18] | ≤ 10 mg/kg | 2 to 4 |
| Cc1ccc(CNC(=S)NCc2ccsc2)cc1N(C)C [Example 19, 1-(3-(dimethylamino)-4-methylbenzyl)-3-(thiophene-3-ylmethyl)thiourea] | ≤ 10 mg/kg | ≤ 2 |
| Cc1ccc(CNC(=N)NCc2ccsc2)cc1N(C)C [Example 20, 1-(3-(dimethylamino)-4-methylbenzyl)-3-(thiophen-3-ylmethyl)guanidine] | ≤ 10 mg/kg | ≤ 2 |
| Cc1ccc(NC(=N)Nc2ccsc2)cc1N(C)C [Example 21] | ≤ 10 mg/kg | > 4 |
| COC(=O)C(C#N)=C(NCc1ccsc1)NCc1ccc(C)cc1N(C)C [Example 22] | > 30 mg/kg | ≤ 2 |
| Cc1ccc(CNC(=O)NCc2ccco2)c(N(C)C)c1 [Example 23] | > 30 mg/kg | ≤ 2 |
| CN(C)c1ccccc1CNC(=O)NCc1ccsc1 [Example 24] | 10 to 20 mg/kg | 2 to 4 |
| Cc1ccc(CNC(=N)NCc2cccs2)c(N(C)C)c1 [Example 26] | > 30 mg/kg | ≤ 2 |
| CN(C)c1ccccc1CNC(=O)NCc1cccs1 [Example 27] | ≤ 10 mg/kg | > 4 |
| CN(C)c1ccccc1CNC(=S)NCc1cccs1 [Example 28] | > 30 mg/kg | ≤ 2 |
| CN(C)c1cc(C(F)(F)F)ccc1CNC(=O)NCc1cccs1 [Example 29] | ≤ 10 mg/kg | ≤ 2 |
| CN(C)c1cccc(CNC(=O)NCc2ccsc2)c1 [Example 30] | 20 to 30 mg/kg | ≤ 2 |
| Cc1ccc(CNC(=O)NCc2cccs2)cc1N(C)C [Example 31] | ≤ 10 mg/kg | > 4 |
